# Calls of active or inactive are those of the source.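 Rule for the calls: active = a tumour-causing dose and a tumour site recorded for mice in at least one sex group; inconclusive = only government mouse studies exist and were judged inadequate; inactive = mouse studies exist but none gave tumours.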
# System: mouse carcinogenicity bioassay, TD50 from CPDB
# Test: DSSTox (CPDBAS) Carcinogenic Potency Database Summary Mouse Bioassay Results
# Outline: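 Values are TD50 carcinogenic potencies from mouse chronic bioassays, taking the most positive result for each sex-species. Sources are published literature and NCI/NTP studies; target sites reflect author-reported positive findings.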
# [1] = TD50_Mouse_Note: no positive results, TargetSites_Mouse_Female: no positive results
# [2] = TargetSites_Mouse_Female: no positive results
# [3] = TD50_Mouse_Note: TD50 is harmonic mean of more than one positive test, TargetSites_Mouse_Female: liver
# [4] = TD50_Mouse_Note: TD50 is harmonic mean of more than one positive test, TargetSites_Mouse_Female: lung, vascular system
smiles,measurement,setting,value
CC(Cl)(Cl)Cl,outcome,[1],inactive; no positive results
COC(N)=O,outcome,[1],inactive; no positive results
C=C(C)C(=O)OC,outcome,[1],inactive; no positive results
Nc1ccc(-c2ccc(N)c(N)c2)cc1N,Potency,[2],0.8 mmol/kg/day
NNCCO,Potency,"TD50_Mouse_Note: TD50 is harmonic mean of more than one positive test, TargetSites_Mouse_Female: no positive results",0.00522 mmol/kg/day
O=NO,outcome,[1],inactive; no positive results
S=[Se],Potency,"TargetSites_Mouse_Female: liver, lung",0.624 mmol/kg/day
ClC(Cl)Cl,Potency,"TD50_Mouse_Note: TD50 is harmonic mean of more than one positive test, greater than ten-fold variation among TD50 values for positive res, TargetSites_Mouse_Female: liver",0.93 mmol/kg/day
Nc1cccc2c(N)cccc12,Potency,"TD50_Mouse_Note: TD50 is harmonic mean of more than one positive test, TargetSites_Mouse_Female: liver, lung, thyroid gland",1.02 mmol/kg/day
O=CCBr,outcome,[1],inactive; no positive results
NC(CCC(=O)O)C(=O)O (stereo unspecified),outcome,TD50_Mouse_Note: no positive results,inactive; no positive results
CC(=O)N[C@@H](CC(C)C)C(=O)N[C@@H](CC(C)C)C(=O)N[C@H](C=O)CCCN=C(N)N,Potency,[2],0.131 mmol/kg/day
Cc1ncc[nH]1,Potency,[3],9.52 mmol/kg/day
COc1ccccc1[N+](=O)[O-],Potency,[3],1.16 mmol/kg/day
C=C(C)[C@H]1CC=C(C)C(=O)C1,outcome,[1],inactive; no positive results
CNc1ncnc2nc[nH]c12,outcome,[1],inactive; no positive results
Cc1cccc(N)c1,Potency,"TD50_Mouse_Note: no positive results are statistically significant, TargetSites_Mouse_Female: no positive results",10 mmol/kg/day
Nc1ccc2c(c1)C(=O)c1ccccc1C2=O,Potency,"TD50_Mouse_Note: TD50 is harmonic mean of more than one positive test, TargetSites_Mouse_Female: hematopoietic system, liver",5.33 mmol/kg/day
FC(F)(Cl)Cl,outcome,[1],inactive; no positive results
C=CC(O)c1ccc2c(c1)OCO2 (stereo unspecified),Potency,[3],0.4 mmol/kg/day
CC(O)CN(C)c1ccc(NN)nn1 (stereo unspecified),outcome,[1],inactive; no positive results
ClCOCC(COCCl)OCCl,Potency,"TD50_Mouse_Note: positive test results only by intraperitoneal or intravenous injection, TargetSites_Mouse_Female: peritoneal cavity",0.0145 mmol/kg/day
CC(C)C/C=N/N(C)C=O,Potency,"TD50_Mouse_Note: TD50 is harmonic mean of more than one positive test, TargetSites_Mouse_Female: gall bladder, liver, lung",0.0157 mmol/kg/day
CN(C)C(=O)Nc1ccc(Cl)c(Cl)c1,outcome,[1],inactive; no positive results
C=COC(C)=O,Potency,"TargetSites_Mouse_Female: esophagus, oral cavity, stomach, uterus",45.5 mmol/kg/day
O=C(O)C(Cl)Cl,Potency,[3],0.923 mmol/kg/day
Nc1ccccc1C(=O)OC/C=C/c1ccccc1,Potency,[3],10.2 mmol/kg/day
Cc1ccccc1OCC(O)CNCCn1cc(C)c(=O)[nH]c1=O (stereo unspecified),outcome,[1],inactive; no positive results
N[C@@H](CCC(=O)NNc1ccc(CO)cc1)C(=O)O,outcome,[1],inactive; no positive results
CCCCC/C=N/N(C)C=O,Potency,"TD50_Mouse_Note: TD50 is harmonic mean of more than one positive test, TargetSites_Mouse_Female: liver, lung",0.0149 mmol/kg/day
CC1(C)S[C@@H]2[C@H](NC(=O)[C@H](N)c3ccccc3)C(=O)N2[C@H]1C(=O)O,outcome,[1],inactive; no positive results
C=CCc1ccc2c(c1)OCO2,Potency,"TD50_Mouse_Note: TD50 is harmonic mean of more than one positive test, harmonic mean of TD50 includes a value for upper 99% confidence li, TargetSites_Mouse_Female: liver",0.316 mmol/kg/day
CC(=O)Nc1ccc(CC(=O)O)cc1,outcome,[1],inactive; no positive results
c1ccncc1,Potency,[3],0.308 mmol/kg/day
Nc1ccc([N+](=O)[O-])cc1O,outcome,[1],inactive; no positive results
Nc1cccc(N)c1,outcome,[1],inactive; no positive results
C=CCNN,Potency,[4],0.315 mmol/kg/day
NC(=O)Cc1c([O-])on[n+]1Cc1ccccc1,Potency,TargetSites_Mouse_Female: liver,0.0437 mmol/kg/day
COc1ccc(N)c(OC)c1,outcome,[1],inactive; no positive results
CC[C@H]1OC(=O)[C@H](C)[C@@H](O[C@H]2C[C@@](C)(OC)[C@@H](O)[C@H](C)O2)[C@H](C)[C@@H](O[C@@H]2O[C@H](C)C[C@H](N(C)C)[C@H]2O)[C@](C)(O)C[C@@H](C)C(=O)[C@H](C)[C@@H](O)[C@]1(C)O,outcome,[1],inactive; no positive results
CC(=O)NNc1ccc(CO)cc1,Potency,[4],1.34 mmol/kg/day
N[C@@H](CCC(=O)NNc1ccc(C(=O)O)cc1)C(=O)O,Potency,[2],0.985 mmol/kg/day
Oc1cccc2cccnc12,outcome,[1],inactive; no positive results
C/C=C\c1ccc(OC)cc1,outcome,[1],inactive
Nc1nc(N)nc(-c2ccccc2)n1,outcome,[1],inactive; no positive results
CN1C(=O)C(O)N=C(c2ccccc2)c2cc(Cl)ccc21 (stereo unspecified),outcome,[1],inactive; no positive results
CCS(=O)(=O)c1ccc(S(N)(=O)=O)c2ccccc12,Potency,"TD50_Mouse_Note: TD50 is harmonic mean of more than one positive test, TargetSites_Mouse_Female: urinary bladder",0.0705 mmol/kg/day
CC(C)(C)NC(=O)[C@H]1CC[C@H]2[C@@H]3CC[C@H]4NC(=O)C=C[C@]4(C)[C@H]3CC[C@]12C,Potency,,0.875 mmol/kg/day
CC(Oc1cc(Cl)c(Cl)cc1Cl)C(=O)O (stereo unspecified),outcome,[1],inactive; no positive results
CCOc1ccc(NC(=O)CC(C)O)cc1 (stereo unspecified),outcome,"TD50_Mouse_Note: TD50_Mouse_mmol was not calculated for this mixture, but Activiity Score is assigned value of 50 to indicate active, TargetSites_Mouse_Female: no positive results",active; kidney
Nc1ncn([C@@H]2O[C@H](CO)[C@@H](O)[C@H]2O)c(=O)n1,Potency,"TD50_Mouse_Note: positive test results only by intraperitoneal or intravenous injection, TD50 is harmonic mean of more than one positive, TargetSites_Mouse_Female: hematopoietic system, mammary gland, skin",0.000317 mmol/kg/day

# From PubChem BioAssay AID1199 (EPA DSSTox, 2008)
